# Data from ChEMBL document CHEMBL3853353, “Identification and optimization of a new series of anti-tubercular quinazolinones” (Bioorg Med Chem Lett, 2016).
# How the values were obtained:
# [1] = tested on: Mycobacterium tuberculosis; test: Antimycobacterial activity against Mycobacterium tuberculosis H37Rv incubated for 5 days by Bactiter-Glo assay; format: functional; details: 120 h
# [2] = Cytotoxicity against human HepG2 cells assessed as reduction in cell viability after 40 hrs by Celltiter-Glo assay; details: HepG2 cells
# [3] = Lipophilicity, log P of compound; details: octanol/water
# [4] = tested on: Mycobacterium tuberculosis; test: Antimycobacterial activity against Mycobacterium tuberculosis H37Rv incubated for 5 days in presence of 25% human serum by Bactiter-Glo assay; format: functional; details: 120 h
# [5] = tested on: Mycobacterium tuberculosis; test: Antimycobacterial activity against GFP-tagged Mycobacterium tuberculosis H37Rv infected in mouse RAW264.7 cells incubated for 4 days by Mask blue/Hoechst/FITC staining based fluorescence microscopic analysis; format: functional; details: 96 h
# [6] = Aqueous equilibrium solubility of compound in pH 1 solution at 20 degC; details: aqueous pH 1 solution
# [7] = Aqueous equilibrium solubility of compound in pH 7.4 solution at 20 degC; details: aqueous pH 7.4 solution
# [8] = tested on: Mycobacterium tuberculosis; test: Antimycobacterial activity against Mycobacterium tuberculosis H37Rv incubated for 5 days in presence of 25% mouse serum by Bactiter-Glo assay; format: functional; details: 120 h
# [9] = tested on: Mycobacterium tuberculosis; test: Ratio of MIC80 for Mycobacterium tuberculosis H37Rv in presence of 25% human serum to MIC80 for Mycobacterium tuberculosis H37Rv; format: functional
# [10] = Protein binding in human plasma at 1 to 10 uM after 4 hrs by LC-MS/MS analysis; format: ADME, cell-free; details: read-out: PPB (converted)
# [11] = Protein binding in Swiss mouse plasma at 1 to 10 uM after 4 hrs by LC-MS/MS analysis; format: ADME, cell-free; details: read-out: PPB (converted)
# [12] = Permeability in human Caco2 cells; details: caco-2
# Cytochrome P450 3A4 [13] = biological target: T1, Cytochrome P450 3A4 (Homo sapiens, UniProt P08684); test: Inhibition of CYP3A4 in human liver microsomes assessed as 6-beta-hydroxytestosterone metabolite formation using testosterone as substrate incubated for 30 mins by HPLC-MS method
# Cytochrome P450 3A4 [14] = biological target: T1, Cytochrome P450 3A4; test: Inhibition of CYP3A4 in human liver microsomes assessed as 1'-hydroxymidazolam metabolite formation using midazolam as substrate incubated for 10 mins by HPLC-MS method
# [15] = AUC in Balb/c mouse plasma infected with Mycobacterium tuberculosis H37Rv at 100 mg/kg, po administered through gavage as 90%/10% PEG200/vitamin -E TPGS formulation; format: ADME, organism-based
# [16] = Solubility in 90%/10% PEG200/vitamin -E TPGS solution; format: physicochemical
# [17] = Oral bioavailability in Swiss mouse at 100 mg/kg administered as single dose through gavage as 90%/10% PEG200/vitamin -E TPGS formulation after 24 hrs; format: ADME, organism-based; details: in vivo
# [18] = Ratio of drug level in Mycobacterium tuberculosis H37Rv infected Balb/c mouse lung to plasma at 100 mg/kg, po administered through gavage as 90%/10% PEG200/vitamin -E TPGS formulation; format: ADME, organism-based; details: lung and plasma
# [19] = Half life in Balb/c mouse infected with Mycobacterium tuberculosis H37Rv at 100 mg/kg, po administered through gavage as 90%/10% PEG200/vitamin -E TPGS formulation; format: ADME, organism-based; details: in vivo
# [20] = Time at which plasma concentration stays above invitro MIC80 in presence of mouse serum in Balb/c mouse infected with Mycobacterium tuberculosis H37Rv at 100 mg/kg, po administered through gavage as 90%/10% PEG200/vitamin -E TPGS formulation; format: ADME, organism-based; details: in vivo
# [21] = Time at which lung concentration stays above invitro MIC80 in presence of mouse serum in Balb/c mouse infected with Mycobacterium tuberculosis H37Rv at 100 mg/kg, po administered through gavage as 90%/10% PEG200/vitamin -E TPGS formulation; format: ADME, organism-based; details: in vivo
# [22] = tested on: Mycobacterium tuberculosis; test: (§1) Antimycobacterial activity against Mycobacterium tuberculosis H37Rv infected in Balb/c mouse assessed as bacterial burden in lungs at 12.5 mg/kg, po administered daily through gavage starting on day 2 post infection for 4 days per week for 2 weeks as Vitamin-E/PEG200 formulation each 4 days dosing followed by 2 days compound washout measured on day 12 post infection (reference value: 8 log10CFU); format: functional, Lung
# [23] = tested on: Mycobacterium tuberculosis; test: as §1, with “25” for “12.5”; format: functional, Lung
# [24] = tested on: Mycobacterium tuberculosis; test: as §1, with “50” for “12.5”; format: functional, Lung
# [25] = tested on: Mycobacterium tuberculosis; test: as §1, with “100” for “12.5”; format: functional, Lung
# [26] = tested on: Mycobacterium tuberculosis; test: as §1, with “200” for “12.5”; format: functional, Lung
# [27] = tested on: Mycobacterium tuberculosis; test: Antimycobacterial activity against Mycobacterium tuberculosis H37Rv infected in po dosed Balb/c mouse assessed as reduction in bacterial burden in lungs administered daily through gavage starting on day 2 post infection for 8 consecutive days; format: functional; details: Lung, 48 h, read-out: MED
# [28] = tested on: Mycobacterium tuberculosis; test: Antimycobacterial activity against Mycobacterium tuberculosis H37Rv in 1000 bacteria inoculated agar plate; format: functional
# [29] = tested on: Mycobacterium tuberculosis; test: Antimycobacterial activity against Mycobacterium tuberculosis H37Rv in 100000 bacteria inoculated agar plate; format: functional
# [30] = tested on: Mycobacterium tuberculosis; test: Antimycobacterial activity against Mycobacterium tuberculosis H37Rv infected in Balb/c mouse assessed as bacterial burden in lungs at 10 to 300 mg/kg administered daily through gavage starting on day 2 post infection for 8 consecutive days; format: functional, Lung
# [31] = tested on: Mycobacterium tuberculosis; test: Antimycobacterial activity against Mycobacterium tuberculosis H37Rv infected in Balb/c mouse assessed as bacterial burden in lungs at 10 to 300 mg/kg administered daily through gavage for 4 days separated by 2 days drug wash out followed by second 4 days drug treatment; format: functional, Lung
# T1 sequence (P08684 whole entry): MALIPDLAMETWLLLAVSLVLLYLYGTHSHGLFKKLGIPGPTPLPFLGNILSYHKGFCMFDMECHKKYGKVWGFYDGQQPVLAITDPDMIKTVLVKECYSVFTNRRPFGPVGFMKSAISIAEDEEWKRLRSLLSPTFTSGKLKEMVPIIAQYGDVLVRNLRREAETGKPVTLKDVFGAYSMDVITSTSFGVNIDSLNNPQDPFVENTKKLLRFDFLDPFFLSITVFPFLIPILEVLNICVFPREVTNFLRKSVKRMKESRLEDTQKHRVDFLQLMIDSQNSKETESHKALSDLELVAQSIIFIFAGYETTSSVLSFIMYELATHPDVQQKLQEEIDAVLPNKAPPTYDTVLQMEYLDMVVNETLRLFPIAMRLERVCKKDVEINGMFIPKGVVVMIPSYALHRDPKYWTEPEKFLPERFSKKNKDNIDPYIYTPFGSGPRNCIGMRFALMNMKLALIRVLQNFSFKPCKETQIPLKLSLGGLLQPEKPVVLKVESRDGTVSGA
compound,measurement,setting,value
Cn1c(NCCc2ccc(-c3ccc(F)cc3)cc2)nc2cc(Cl)ccc2c1=O,MIC80,[1],3 nM
same,IC50 at 40 h,[2],22 µM
same,logP,[3],5.28
same,MIC80,[4],0.025 µM
same,MIC80,[5],0.06 µM
same,solubility thermodynamic,[6],< 1 µg/mL
same,solubility thermodynamic,[7],< 1 µg/mL
same,MIC80,[8],0.034 µM
same,Ratio,[9],8
same,fraction unbound at 4 h,[10],0.001
same,fraction unbound at 4 h,[11],0.001
same,permeability,[12],Permeable
same,IC50,Cytochrome P450 3A4 [13],18 µM
same,IC50,Cytochrome P450 3A4 [14],> 30 µM
same,AUC,[15],76000 ng·h/mL
same,solubility,[16],20 mg/mL
same,bioavailability,[17],73%
same,Kp,[18],14
same,half-life,[19],480 min
same,Time,[20],> 24 h
same,Time,[21],> 24 h
same,Activity,[22],7.7 log10CFU
same,Activity,[23],7.6 log10CFU
same,Activity,[24],7.4 log10CFU
same,Activity,[25],7.6 log10CFU
same,Activity,[26],7.6 log10CFU
same,minimal effective dose,[27],300 mg/kg
same,MIC,[28],0.016 µg/mL
same,MIC,[29],2 µg/mL
same,Activity,[30],0.78 log10CFU
same,Activity,[31],1.5 log10CFU
